The values below come from patent US10463658B2, “Method of inhibiting FLT3 kinase” (AROG Pharmaceuticals, LLC, priority 2013, dated 2019).

One assay concerns the target T1, FLT3 R834Q (Homo sapiens, UniProt P36888, R834Q).
T1 construct: host or cells: E. coli BL21-derived host (T7 phage) or HEK-293
T1 sequence (P36888 610-943 R834Q limits assumed): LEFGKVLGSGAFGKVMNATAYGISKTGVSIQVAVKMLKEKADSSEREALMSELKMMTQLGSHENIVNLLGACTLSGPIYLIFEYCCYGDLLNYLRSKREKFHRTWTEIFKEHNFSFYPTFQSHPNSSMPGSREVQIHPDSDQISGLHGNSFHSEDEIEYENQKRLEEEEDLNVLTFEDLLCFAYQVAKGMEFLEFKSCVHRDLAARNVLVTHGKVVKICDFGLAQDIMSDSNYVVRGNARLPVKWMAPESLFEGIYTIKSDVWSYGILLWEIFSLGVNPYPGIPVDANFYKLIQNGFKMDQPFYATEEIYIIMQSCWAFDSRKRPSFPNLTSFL
The assay can be described thus: KINOMEscan KdElect competitive binding assay, FLT3 R834Q. The settings on record: tosylate salt; read-out: Binding Constant (Kd), FLT3 R834Q. The source says: (§1) Competitive binding assay.
(§2) The lysates were then centrifuged and filtered.

Assay [1] concerns the target T2, FLT3 ITD (Homo sapiens, UniProt P36888).
T2 sequence (P36888 1-993): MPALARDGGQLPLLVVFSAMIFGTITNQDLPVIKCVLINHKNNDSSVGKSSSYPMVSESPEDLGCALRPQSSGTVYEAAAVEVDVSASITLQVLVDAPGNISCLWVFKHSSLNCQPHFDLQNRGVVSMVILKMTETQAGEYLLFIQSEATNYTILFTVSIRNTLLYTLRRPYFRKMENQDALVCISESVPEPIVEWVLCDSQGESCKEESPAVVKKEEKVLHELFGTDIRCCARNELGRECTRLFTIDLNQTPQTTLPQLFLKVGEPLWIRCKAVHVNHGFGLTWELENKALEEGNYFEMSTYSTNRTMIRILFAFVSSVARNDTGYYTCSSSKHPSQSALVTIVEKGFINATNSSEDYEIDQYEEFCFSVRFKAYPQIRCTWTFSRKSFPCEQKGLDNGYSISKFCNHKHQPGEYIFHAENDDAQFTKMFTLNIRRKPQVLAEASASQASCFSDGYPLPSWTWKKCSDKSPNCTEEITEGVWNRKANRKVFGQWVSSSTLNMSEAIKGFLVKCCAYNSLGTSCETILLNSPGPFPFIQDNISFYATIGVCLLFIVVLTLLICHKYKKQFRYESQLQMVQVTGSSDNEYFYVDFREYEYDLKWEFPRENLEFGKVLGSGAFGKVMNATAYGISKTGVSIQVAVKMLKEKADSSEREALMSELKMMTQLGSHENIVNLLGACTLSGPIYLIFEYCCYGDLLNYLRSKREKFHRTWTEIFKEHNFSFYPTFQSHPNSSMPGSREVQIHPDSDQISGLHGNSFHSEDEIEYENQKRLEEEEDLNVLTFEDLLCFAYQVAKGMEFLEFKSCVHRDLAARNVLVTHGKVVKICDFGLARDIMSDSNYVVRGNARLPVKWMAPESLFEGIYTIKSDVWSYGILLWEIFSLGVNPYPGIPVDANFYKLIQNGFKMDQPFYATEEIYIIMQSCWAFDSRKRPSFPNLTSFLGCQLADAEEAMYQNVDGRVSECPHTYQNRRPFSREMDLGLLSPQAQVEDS
Nature of the assay: Inhibition of FLT3-ITD phosphorylation by western blot in BaF3 cells transduced to express FLT3. The settings on record: Ba/F3 FLT3-ITD cells, tosylate salt, read-out: IC50, inhibition of phosphorylation of the FLT3-ITD receptor. The format is cell-based. As for the experimental part:
The ability of the tosylate (toluenesulfonate) salt of CP-673,451 to inhibit phosphorylated FLT3 was determined using cell lines expressing FLT3-ITD, including Molm-13 (a human acute myeloid leukemia cell line) and BaF3 (bone marrow-derived pro-B-cell line) cells transduced to express FLT3. The effect was examined by western blot.
(A western blot detects proteins with antibodies after separation by electrophoresis.)

Assay [2] deals with T2, FLT3 ITD. The settings on record: read-out: Binding Constant (Kd), FLT3 ITD; CP-673,451 as tosylate salt.
The target in the next assay is T3, FLT3 autoinhibited (Homo sapiens, UniProt P36888).
T3 construct: host or cells: E. coli BL21-derived host (T7 phage) or HEK-293
T3 sequence (P36888 564-993 limits assumed): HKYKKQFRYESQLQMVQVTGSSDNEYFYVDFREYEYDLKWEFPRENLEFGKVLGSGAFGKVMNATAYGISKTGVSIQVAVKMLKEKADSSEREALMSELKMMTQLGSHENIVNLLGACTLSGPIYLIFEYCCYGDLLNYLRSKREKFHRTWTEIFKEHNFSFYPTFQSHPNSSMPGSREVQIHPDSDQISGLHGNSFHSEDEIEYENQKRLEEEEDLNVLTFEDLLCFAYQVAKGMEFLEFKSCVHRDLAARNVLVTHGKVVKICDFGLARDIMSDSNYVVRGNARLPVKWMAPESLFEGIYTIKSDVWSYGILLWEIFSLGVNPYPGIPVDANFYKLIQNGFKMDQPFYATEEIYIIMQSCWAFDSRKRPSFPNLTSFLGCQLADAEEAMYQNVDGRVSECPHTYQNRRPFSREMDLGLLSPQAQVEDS
The assay can be described thus: KINOMEscan KdElect competitive binding assay, autoinhibited FLT3. The settings on record: tosylate salt; average Kd; read-out: Binding Constant (Kd), FLT3 autoinhibited.
From the text: as §1, §2

The target of a further assay is T4, FLT3 D835H (Homo sapiens, UniProt P36888, D835H).
T4 construct: host or cells: E. coli BL21-derived host (T7 phage) or HEK-293
T4 sequence (P36888 610-943 D835H limits assumed): T1 sequence (P36888 610-943 R834Q limits assumed) with Q225R, D226H
The assay can be described thus: KINOMEscan KdElect competitive binding assay, FLT3 D835H. The settings on record: tosylate salt.
From the text: as §1, §2

The target in the next assay is T5, FLT3 wild type (Homo sapiens, UniProt P36888).
T5 construct: host or cells: E. coli BL21-derived host (T7 phage) or HEK-293
T5 sequence (P36888 610-943 limits assumed): T1 sequence (P36888 610-943 R834Q limits assumed) with Q225R
Nature of the assay: KINOMEscan KdElect competitive binding assay, wild type FLT3. The settings on record: CP-673,451 as tosylate salt; read-out: Binding Constant (Kd), FLT3 wild type.

Residue numbers refer to the chain shown, from its start.

As to `COCCOc1ccc2c(c1)ncn2-c1ccc2cccc(N3CCC(N)CC3)c2n1` [CP-673,451], the Kd (commonly the concentration at which binding is half-saturated) on FLT3 R834Q amounted to 650 pM; at FLT3 ITD [2], 250 pM; at FLT3 autoinhibited, 18000 pM; on FLT3 D835H it was 160 pM; at FLT3 wild type, 350 pM. Also, the half-inhibitory concentration (IC50) (in general, the concentration that inhibits the measured activity by half) on FLT3 ITD [1] worked out at 5100 pM.
